The text below walks through data of PubChem BioAssay AID449725 (University of Pittsburgh Molecular Library Screening Center, 2010).

Calls of active or inactive are those of the source. How the calls were made is not given here. Where only a bound is given, the exact number is not on record here.

The experiment has as its system IMR-90 human lung fibroblast viability counter screen. The experiment is described as follows: IMR-90 fibroblast viability reduction, dose response, cytotoxicity control, cell-based, IC50 (AID 449725).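 Further: 48 hour compound exposure before the viability read.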
Turning to `O=c1c2cc(Br)ccc2sn1-c1ccccc1`, the IC50 was > 25 µM (inactive). In the case of `COc1ccc(NC(=O)c2ccccc2C(=O)O)cc1`, the IC50 was > 25 µM (inactive). For `O=C(Cn1sc2ccccc2c1=O)Nc1ccccc1I`, the IC50 is > 25 µM (inactive). On to `CN(C)c1cccc(NC(=O)Cn2sc3ccccc3c2=O)c1`, for which the IC50 was > 25 µM (inactive). As to `COc1ccc(C(=O)Nc2cc(Cl)ccc2C(=O)O)cc1`, the IC50 is > 25 µM (inactive).

Turning to `O=C(Cn1sc2ccccc2c1=O)Nc1ccc(C(F)(F)F)cc1`, the IC50 is 13.9 µM.

In the case of `CCCCCCCC(=O)Nc1cc(Cl)ccc1C(=O)O`, the IC50 is > 25 µM (inactive).

As for `O=c1c2ccccc2sn1-c1ccccc1Cl`, the IC50 was 4.81 µM. In the case of `COc1cccc(CC(=O)Nc2cc(Cl)ccc2C(=O)O)c1`, the IC50 was > 25 µM (inactive).

`O=C(CCn1sc2ccccc2c1=O)Nc1ccccc1`: the IC50 is 9.92 µM. The figure for `Cn1c2ccccc2c(=O)n1-c1ccccc1` is > 25 µM (inactive). As for `O=C(Cn1sc2ccccc2c1=O)Nc1cccc(F)c1`, the IC50 was > 25 µM (inactive). In the case of `COc1ccc(C(=O)Nc2cc(Cl)ccc2C#N)cc1` it was > 25 µM (inactive); in that of `COc1ccc(-n2sc3ccccc3c2=O)cc1`, 5.54 µM; in that of `CN(C)S(=O)(=O)c1cccc(-n2sc3ccccc3c2=O)c1`, 12.8 µM. Regarding `CC(C)(C)c1ccc(C(=O)Nc2cc(Cl)c(F)cc2C(=O)O)cc1`, the IC50 was > 25 µM (inactive). Turning to `CC(C)(C)c1ccc(C(=O)Nc2c(C(=O)O)ccc(Cl)c2Cl)cc1`, the IC50 was > 25 µM (inactive). In the case of `COc1ccc(C(=O)Nc2cc(I)ccc2C(=O)O)cc1` it was > 25 µM (inactive); in that of `Cc1cc(C(C#N)c2ccc(Cl)cc2)c(Cl)cc1NC(=O)c1cc(I)cc(I)c1O` (centres undefined), > 25 µM (inactive); in that of `Cc1ccc(-n2sc3cc(F)ccc3c2=O)c(C)c1`, 6.4 µM. For `Cc1ccc(NC(=O)Cn2sc3ccccc3c2=O)cc1`, the IC50 is 11 µM. Take `O=c1c2ccc([N+](=O)[O-])cc2sn1-c1ccccc1`: the IC50 was 20.7 µM. Regarding `COc1ccc(C(=O)Nc2cc(C)ccc2C(=O)O)cc1`, the IC50 was > 25 µM (inactive). For `O=c1c2cc(F)c(F)cc2sn1-c1ccccc1`, the IC50 is > 25 µM (inactive). In the case of `CC(C(=O)Nc1ccccc1)n1sc2ccccc2c1=O` (centres undefined) it was 16.3 µM.

Take `O=C(O)c1ccc(Cl)cc1NC(=O)N1CCOCC1`: the IC50 was > 25 µM (inactive). As for `COC(=O)c1cc(Cl)ccc1NC(=O)c1ccc(OC)cc1`, the IC50 is > 25 µM (inactive).

With `CCCCCC(=O)Nc1cc(Cl)ccc1C(=O)O`, the IC50 was > 25 µM (inactive). In the case of `CN(C)c1ccc(C(=O)Nc2cc(Cl)ccc2C(=O)O)cc1` it was > 25 µM (inactive); in that of `O=c1c2ccccc2sn1-c1ccccc1`, 1.45 µM; in that of `COc1ccc(C(=O)Nc2cccc(Cl)c2)cc1`, > 25 µM (inactive). In the case of `COc1ccc(C(=O)Nc2ccc(Cl)cc2C(=O)O)cc1` it was > 25 µM (inactive); in that of `CCCCCCC(=O)Nc1cc(Cl)ccc1C(=O)O`, > 25 µM (inactive). With `Cc1ccccc1N1Cc2ccccc2C1=O`, the IC50 was > 25 µM (inactive).

Regarding `COc1ccc(C(=O)Nc2cc(Cl)ccc2[N+](=O)[O-])cc1`, the IC50 is > 25 µM (inactive). The figure for `O=c1c(Br)csn1-c1ccc(Br)cc1` is > 25 µM (inactive); for `CCc1ccc(C(=O)Nc2cc(Br)ccc2C(=O)O)cc1` it is > 25 µM (inactive). With `N#Cc1ccc2c(=O)n(-c3ccccc3)sc2c1`, the IC50 is > 25 µM (inactive).

`CC1(c2ccc(C(=O)Nc3cc(Cl)ccc3C(=O)O)cc2)CC1`: the IC50 was > 25 µM (inactive). As for `Cc1ccc(C(=O)Nc2cc(Cl)ccc2C(=O)O)cc1C`, the IC50 is > 25 µM (inactive). Take `COc1ccc(C(=O)NCC(=O)O)cc1`: the IC50 is > 25 µM (inactive). `O=C(Cn1sc2ccccc2c1=O)Nc1ccc(I)cc1`: the IC50 was > 25 µM (inactive). On to `N#Cc1ccc2sn(-c3ccccc3)c(=O)c2c1`, for which the IC50 was > 25 µM (inactive).

For `O=C(Nc1cc(Cl)ccc1C(=O)O)c1ccc2c(c1)OCO2`, the IC50 is > 25 µM (inactive).

For `CN(Cc1ccccc1)C(=O)Cn1sc2ccccc2c1=O`, the IC50 was 15.2 µM. On to `COc1ccc(C(=O)Nc2cc(Br)ccc2C(=O)O)cc1`, for which the IC50 was > 25 µM (inactive).

Consider `COc1ccc(C(=O)O)c(NC(=O)c2ccc(Cl)cc2)c1`, for which the IC50 was > 25 µM (inactive). As for `N#Cc1ccc(NC(=O)Cn2sc3ccccc3c2=O)cc1`, the 50% inhibitory concentration (IC50) is 19.7 µM. Take `COc1ccc(C(=O)Nc2cc(OC)ccc2C(=O)O)cc1`: the IC50 was > 25 µM (inactive). Take `CC(=O)Nc1cc(Cl)ccc1C(=O)O`: the IC50 was > 25 µM (inactive).

With `COc1ccc(C(=O)NC(CC(=O)O)c2cccc(Cl)c2)cc1` (centres undefined), the IC50 is > 25 µM (inactive). As to `O=C(Nc1cc(Cl)ccc1C(=O)O)c1ccc2c(c1)CCC2`, the IC50 is > 25 µM (inactive). Consider `OB1OCc2cc(C(F)(F)F)ccc21`, for which the IC50 is > 25 µM (inactive). Turning to `O=C(Nc1cc(Cl)ccc1C(=O)O)c1ccsc1`, the IC50 is > 25 µM (inactive).

A word on the IC50: it is the point on the concentration scale where inhibition reaches its midpoint.
